Measurements: patent US10131652B2, “Pyrimidinyloxy benzene derivatives as herbicides” (E. I. DU PONT DE NEMOURS AND COMPANY, priority 2014, dated 2018)
Read-outs that look alike come from different tables or passages of the source.

Columns and labels:
Format in all cases: in vivo
[1] = test system: blackgrass (Alopecurus myosuroides); test: Test E pre-/postemergence plant response; conditions: scale 0 to 100, read-out: Plant response rating, Blackgrass; for pest or weed control at 16 g/ha: 16 g ai/ha; for pest or weed control at 31 g/ha: 31 g ai/ha; for pest or weed control at 62 g/ha: 62 g ai/ha; for pest or weed control at 125 g/ha: 125 g ai/ha
Method in brief: (§1)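 Pre-emergence: seeds sown in silt loam soil and sprayed with test chemicals in a non-phytotoxic solvent/surfactant mix. Post-emergence: plants at 2–18 cm (1- to 4-leaf stage) in peat/vermiculite medium treated with the same formulation. Visual rating versus controls after 7–21 days, 0 (no effect) to 100 (complete control).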

[2] = test system: chamomile (scentless chamomile, Matricaria inodora); test: Test E pre-/postemergence plant response; conditions: Tripleurospermum inodorum, scale 0 to 100, read-out: Plant response rating, Chamomile; for pest or weed control at 16 g/ha: 16 g ai/ha; for pest or weed control at 31 g/ha: 31 g ai/ha; for pest or weed control at 62 g/ha: 62 g ai/ha; for pest or weed control at 125 g/ha: 125 g ai/ha
Method in brief: as §1

kochia (Kochia scoparia) = test: Test E pre-/postemergence plant response; conditions: Bassia scoparia, scale 0 to 100, read-out: Plant response rating, Kochia; for pest or weed control at 16 g/ha: 16 g ai/ha; for pest or weed control at 31 g/ha: 31 g ai/ha; for pest or weed control at 62 g/ha: 62 g ai/ha; for pest or weed control at 125 g/ha: 125 g ai/ha
Method in brief: as §1

[3] = test system: oilseed rape (Brassica napus); test: Test E pre-/postemergence plant response; conditions: scale 0 to 100, read-out: Plant response rating, Oilseed Rape; for plant injury at 16 g/ha: 16 g ai/ha; for plant injury at 31 g/ha: 31 g ai/ha; for plant injury at 62 g/ha: 62 g ai/ha; for plant injury at 125 g/ha: 125 g ai/ha
Method in brief: as §1

wild oat (Avena fatua) = test: Test E pre-/postemergence plant response; conditions: scale 0 to 100, read-out: Plant response rating, Oat, Wild; for pest or weed control at 16 g/ha: 16 g ai/ha; for pest or weed control at 31 g/ha: 31 g ai/ha; for pest or weed control at 62 g/ha: 62 g ai/ha; for pest or weed control at 125 g/ha: 125 g ai/ha
Method in brief: as §1

[4] = test system: Brazilian crabgrass (Digitaria horizontalis); test: Test F pre-/postemergence plant response; conditions: Digitaria horizontalis, scale 0 to 100, read-out: Plant response rating, Crabgrass, Brazil
Method in brief: (§2)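 Seeds were sown in silt loam and sprayed preemergence; in parallel, plants at 2–18 cm (1- to 4-leaf) received postemergence sprays. Test chemicals were in a non-phytotoxic solvent with surfactant. After 14–21 days in the greenhouse, injury was rated visually against controls on a 0–100 scale (100 = complete control).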

[5] = test system: green foxtail (Setaria viridis); test: Test F pre-/postemergence plant response; conditions: Setaria viridis, pre-emergence, scale 0 to 100, read-out: Plant response rating, Foxtail, Green
Method in brief: as §2

[6] = test system: johnsongrass (Sorghum halepense); test: Test F pre-/postemergence plant response; conditions: Sorghum halepense, pre-emergence, scale 0 to 100, read-out: Plant response rating, Johnsongrass
Method in brief: as §2

[7] = test system: wild poinsettia (Euphorbia heterophylla); test: Test F pre-/postemergence plant response; conditions: Euphorbia heterophylla, scale 0 to 100, read-out: Plant response rating, Poinsettia, Wild
Method in brief: as §2

[8] = post-emergence, 8 g ai/ha Postemergence
[9] = post-emergence, 16 g ai/ha Postemergence
[10] = post-emergence, 31 g ai/ha Postemergence
[11] = post-emergence, 62 g ai/ha Postemergence
[12] = post-emergence, 125 g ai/ha Postemergence
[13] = pre-emergence, 8 g ai/ha Preemergence
[14] = pre-emergence, 16 g ai/ha Preemergence
[15] = pre-emergence, 31 g ai/ha Preemergence
[16] = pre-emergence, 125 g ai/ha Preemergence

Question: For `FC(F)c1cc(-c2ccccc2Oc2ncc(Br)cn2)no1` [Compound 62, 5-bromo-2-[2-[5-(difluoromethyl)-3-isoxazolyl]phenoxy]pyrimidine], which pest or weed control at 16 g/ha ([1]; post-emergence, Postemergence) is on record?
Answer: 15%

Question: And the pest or weed control at 31 g/ha ([1]; post-emergence, Postemergence)?
Answer: 30%

Question: And the pest or weed control at 62 g/ha ([1]; post-emergence, Postemergence)?
Answer: 40%

Question: What about the pest or weed control at 125 g/ha ([1]; post-emergence, Postemergence) of the same molecule?
Answer: 75%

Question: And the pest or weed control at 16 g/ha ([1]; pre-emergence, Preemergence)?
Answer: 5%

Question: And the pest or weed control at 31 g/ha ([1]; pre-emergence, Preemergence)?
Answer: 15%

Question: And the pest or weed control at 62 g/ha ([1]; pre-emergence, Preemergence)?
Answer: 15%

Question: What about the pest or weed control at 125 g/ha ([1]; pre-emergence, Preemergence) of the same molecule?
Answer: 65%

Question: What about the pest or weed control at 16 g/ha ([2]; post-emergence, Postemergence) of the same molecule?
Answer: 0%

Question: What about the pest or weed control at 31 g/ha ([2]; post-emergence, Postemergence) of the same molecule?
Answer: 5%

Question: And the pest or weed control at 62 g/ha ([2]; post-emergence, Postemergence)?
Answer: 5%

Question: And the pest or weed control at 125 g/ha ([2]; post-emergence, Postemergence)?
Answer: 10%

Question: What about the pest or weed control at 16 g/ha ([2]; pre-emergence, Preemergence) of the same molecule?
Answer: 0%

Question: And the pest or weed control at 31 g/ha ([2]; pre-emergence, Preemergence)?
Answer: 65%

Question: And the pest or weed control at 62 g/ha ([2]; pre-emergence, Preemergence)?
Answer: 60%

Question: And the pest or weed control at 125 g/ha ([2]; pre-emergence, Preemergence)?
Answer: 65%

Question: What about the pest or weed control at 16 g/ha (kochia (Kochia scoparia); post-emergence, Postemergence) of the same molecule?
Answer: 65%

Question: What about the pest or weed control at 31 g/ha (kochia (Kochia scoparia); post-emergence, Postemergence) of the same molecule?
Answer: 75%

Question: And the pest or weed control at 62 g/ha (kochia (Kochia scoparia); post-emergence, Postemergence)?
Answer: 90%

Question: What about the pest or weed control at 125 g/ha (kochia (Kochia scoparia); post-emergence, Postemergence) of the same molecule?
Answer: 95%

Question: And the pest or weed control at 16 g/ha (kochia (Kochia scoparia); pre-emergence, Preemergence)?
Answer: 0%

Question: What about the pest or weed control at 31 g/ha (kochia (Kochia scoparia); pre-emergence, Preemergence) of the same molecule?
Answer: 5%

Question: What about the pest or weed control at 62 g/ha (kochia (Kochia scoparia); pre-emergence, Preemergence) of the same molecule?
Answer: 85%

Question: And the pest or weed control at 125 g/ha (kochia (Kochia scoparia); pre-emergence, Preemergence)?
Answer: 100%

Question: And the plant injury at 16 g/ha ([3]; post-emergence, Postemergence)?
Answer: 65%

Question: And the plant injury at 31 g/ha ([3]; post-emergence, Postemergence)?
Answer: 80%

Question: And the plant injury at 62 g/ha ([3]; post-emergence, Postemergence)?
Answer: 80%

Question: What about the plant injury at 125 g/ha ([3]; post-emergence, Postemergence) of the same molecule?
Answer: 100%

Question: And the plant injury at 16 g/ha ([3]; pre-emergence, Preemergence)?
Answer: 10%

Question: And the plant injury at 31 g/ha ([3]; pre-emergence, Preemergence)?
Answer: 25%

Question: What about the plant injury at 62 g/ha ([3]; pre-emergence, Preemergence) of the same molecule?
Answer: 65%

Question: What about the plant injury at 125 g/ha ([3]; pre-emergence, Preemergence) of the same molecule?
Answer: 100%

Question: What about the pest or weed control at 16 g/ha (wild oat (Avena fatua); post-emergence, Postemergence) of the same molecule?
Answer: 15%

Question: What about the pest or weed control at 31 g/ha (wild oat (Avena fatua); post-emergence, Postemergence) of the same molecule?
Answer: 25%

Question: What about the pest or weed control at 62 g/ha (wild oat (Avena fatua); post-emergence, Postemergence) of the same molecule?
Answer: 35%

Question: And the pest or weed control at 125 g/ha (wild oat (Avena fatua); post-emergence, Postemergence)?
Answer: 60%

Question: And the pest or weed control at 16 g/ha (wild oat (Avena fatua); pre-emergence, Preemergence)?
Answer: 0%

Question: And the pest or weed control at 31 g/ha (wild oat (Avena fatua); pre-emergence, Preemergence)?
Answer: 10%

Question: And the pest or weed control at 62 g/ha (wild oat (Avena fatua); pre-emergence, Preemergence)?
Answer: 15%

Question: And the pest or weed control at 125 g/ha (wild oat (Avena fatua); pre-emergence, Preemergence)?
Answer: 20%

Question: And the pest or weed control at 8 g/ha [4, 8]?
Answer: 0%

Question: What about the pest or weed control at 16 g/ha [4, 9] of the same molecule?
Answer: 0%

Question: What about the pest or weed control at 31 g/ha [4, 10] of the same molecule?
Answer: 10%

Question: What about the pest or weed control at 62 g/ha [4, 11] of the same molecule?
Answer: 15%

Question: What about the pest or weed control at 125 g/ha [4, 12] of the same molecule?
Answer: 10%

Question: And the pest or weed control at 8 g/ha [4, 13]?
Answer: 0%

Question: What about the pest or weed control at 16 g/ha [4, 14] of the same molecule?
Answer: 0%

Question: And the pest or weed control at 31 g/ha [4, 15]?
Answer: 75%

Question: And the pest or weed control at 62 g/ha ([4]; pre-emergence, 62 g ai/ha Preemergence)?
Answer: 100%

Question: What about the pest or weed control at 125 g/ha [4, 16] of the same molecule?
Answer: 100%

Question: What about the pest or weed control at 8 g/ha ([5]; 8 g ai/ha Preemergence) of the same molecule?
Answer: 0%

Question: And the pest or weed control at 16 g/ha ([5]; 16 g ai/ha, Preemergence)?
Answer: 0%

Question: What about the pest or weed control at 31 g/ha ([5]; 31 g ai/ha, Preemergence) of the same molecule?
Answer: 10%

Question: And the pest or weed control at 125 g/ha ([5]; 125 g ai/ha, Preemergence)?
Answer: 90%

Question: And the pest or weed control at 62 g/ha ([5]; Preemergence)?
Answer: 40%

Question: And the pest or weed control at 8 g/ha ([6]; 8 g ai/ha Preemergence)?
Answer: 0%

Question: What about the pest or weed control at 16 g/ha ([6]; 16 g ai/ha Preemergence) of the same molecule?
Answer: 0%

Question: And the pest or weed control at 31 g/ha ([6]; 31 g ai/ha Preemergence)?
Answer: 20%

Question: What about the pest or weed control at 125 g/ha ([6]; 125 g ai/ha Preemergence) of the same molecule?
Answer: 40%

Question: What about the pest or weed control at 62 g/ha ([6]; Preemergence) of the same molecule?
Answer: 35%

Question: What about the pest or weed control at 8 g/ha [7, 8] of the same molecule?
Answer: 25%

Question: What about the pest or weed control at 16 g/ha [7, 9] of the same molecule?
Answer: 35%

Question: What about the pest or weed control at 31 g/ha [7, 10] of the same molecule?
Answer: 40%

Question: And the pest or weed control at 62 g/ha [7, 11]?
Answer: 50%

Question: What about the pest or weed control at 125 g/ha [7, 12] of the same molecule?
Answer: 50%

Question: And the pest or weed control at 8 g/ha [7, 13]?
Answer: 0%

Question: What about the pest or weed control at 16 g/ha [7, 14] of the same molecule?
Answer: 0%

Question: And the pest or weed control at 31 g/ha [7, 15]?
Answer: 30%

Question: What about the pest or weed control at 125 g/ha [7, 16] of the same molecule?
Answer: 35%

Question: What about the pest or weed control at 62 g/ha ([7]; pre-emergence, Preemergence) of the same molecule?
Answer: 25%
